According to patent US7582645B2, “Pyrimidine derivatives for treatment of hyperproliferative disorders” (Bayer Pharmaceuticals Corporation, priority 2003, dated 2009):
Structures can show the parent of a compound that is named as a salt.

System: HCT116 cells
Assay: HCT116 cytotoxic activity assay (Alamar Blue, 72 h)
Format: cell-based
Settings: Homo sapiens, HCT-116, 72 h compound exposure, greater than 500 nM but less than or equal to 2 μM
Procedure: Representative compounds of this invention were tested for cytotoxicity using the above-described assay procedure with the following results: […]

| SMILES | IC50 [nM] |
| --- | --- |
| CCCCc1ccc(-c2cc(Nc3ccc(Oc4ccnc(C#N)c4)cc3)nc(N)n2)cc1 [Example 220, 4-(4-{[2-amino-6-(4-butylphenyl)pyrimidin-4-yl]amino}phenoxy) pyridine-2-carbonitrile] | 500 to 2000 |
| NC(=O)c1cc(Oc2ccc(Nc3cc(-c4cccc(OCc5ccccc5)c4)nc(N)n3)cc2)ccn1 [Example 222, 4-[4-({2-amino-6-[3-(benzyloxy)phenyl]pyrimidin-4-yl}amino)phenoxy]pyridine-2-carboxamide] | 500 to 2000 |
| N#Cc1cc(Oc2ccc(Nc3cc(-c4cccc(O)c4)nc(N)n3)cc2)ccn1 [Example 226] | 500 to 2000 |
| COc1ccc(-c2cc(Nc3ccc(Oc4ccnc(C(N)=O)c4)cc3)nc(N)n2)cn1 [Example 230, 4-(4-{[2-amino-6-(6-methoxypyridin-3-yl)pyrimidin-4-yl]amino}phenoxy) pyridine-2-carboxamide] | 500 to 2000 |
| CSc1ccc(-c2cc(Nc3ccc(Oc4ccnc(C#N)c4)cc3)nc(N)n2)cc1 [Example 231, 4-[4-({2-amino-6-[4-(methylthio)phenyl]pyrimidin-4-yl}amino)phenoxy]pyridine-2-carbonitrile] | 500 to 2000 |
| CN(C)c1ccc(-c2cc(Nc3ccc(Oc4ccnc(C#N)c4)cc3)nc(N)n2)cc1 [Example 232, 4-[4-({2-amino-6-[4-(dimethylamino)phenyl]pyrimidin-4-yl}amino)phenoxy]pyridine-2-carbonitrile] | 500 to 2000 |
| N#CCc1ccc(-c2cc(Nc3ccc(Oc4ccnc(C#N)c4)cc3)nc(N)n2)cc1 [Example 235, 4-[4-({2-amino-6-(4-(cyanomethyl)phenyl]pyrimidin-4-yl}amino)phenoxy]pyridine-2-carbonitrile] | 500 to 2000 |
| N#Cc1cc(Oc2ccc(Nc3cc(-c4cccs4)nc(N)n3)cc2)ccn1 [Example 239, 4-(4-{[2-amino-6-(2-thienyl)pyrimidin-4-yl]amino}phenoxy) pyridine-2-carbonitrile] | 500 to 2000 |
| N#Cc1cc(Oc2ccc(Nc3cc(-c4ccc(Cl)cc4)nc(N)n3)cc2)ccn1 [Example 242, 4-(4-{[2-amino-6-(4-chlorophenyl)pyrimidin-4-yl]amino}phenoxy) pyridine-2-carbonitrile] | 500 to 2000 |
| N#Cc1cc(Oc2ccc(Nc3cc(-c4ccccc4N)nc(N)n3)cc2)ccn1 [Example 243, 4-(4-{[2-amino-6-(2-aminophenyl)pyrimidin-4-yl]amino}phenoxy) pyridine-2-carbonitrile] | 500 to 2000 |
| COc1ccc(C(C)C)cc1-c1cc(Nc2ccc(Oc3ccnc(C#N)c3)cc2)nc(N)n1 [Example 245, 4-(4-{[2-amino-6-(5-isopropyl-2-methoxyphenyl)pyrimidin-4-yl]amino}phenoxy)pyridine-2-carbonitrile] | 500 to 2000 |

Same assay, conditions: Homo sapiens, HCT-116, 72 h compound exposure, greater than 2 μM

| SMILES | IC50 [nM] |
| --- | --- |
| Nc1nc(Nc2ccc(Oc3ccnc(C(F)(F)F)c3)cc2)cc(-c2cccc(OC(F)(F)F)c2)n1 [Example 216, 6-[3-(trifluoromethoxy)phenyl]-N4*- (4-{[2-(trifluoromethyl)pyridin-4-yl]oxy}phenyl)pyrimidine-2,4-diamine] | > 2000 |
| Nc1nc(Nc2ccc(Oc3ccnc(C(F)(F)F)c3)cc2)cc(-c2ccc(OC(F)(F)F)cc2)n1 [Example 217, 6-[4-(trifluoromethoxy)phenyl]-N4*- (4-{[2-(trifluoromethyl)pyridin-4-yl]oxy}phenyl)pyrimidine-2,4-diamine] | > 2000 |
| N#Cc1cc(Oc2ccc(Nc3cc(-c4ccc(-c5ccccc5)c(F)c4)nc(N)n3)cc2)ccn1 [Example 221, 4-(4-{[2-amino-6-(2-fluorobiphenyl-4-yl)pyrimidin-4-yl]amino}phenoxy) pyridine-2-carbonitrile] | > 2000 |
| COc1ccc(-c2cc(Nc3ccc(Oc4ccnc(C#N)c4)cc3)nc(N)n2)cc1OC [Example 224, 4-(4-{[2-amino-6-(3,4-dimethoxyphenyl)pyrimidin-4-yl]amino}phenoxy)pyridine-2-carbonitrile] | > 2000 |
| COc1ccc(-c2cc(Nc3ccc(Oc4ccnc(C#N)c4)cc3)nc(N)n2)cc1 [Example 225, 4-(4-{[2-amino-6-(4-methoxyphenyl)pyrimidin-4-yl]amino}phenoxy) pyridine-2-carbonitrile 4-(4-{[6-amino-2-(4-methoxyphenyl)pyrimidin-4-yl]amino}phenoxy) pyridine-2-carbonitrile] | > 2000 |
| N#Cc1cc(Oc2ccc(Nc3cc(-c4cccnc4)nc(N)n3)cc2)ccn1 [Example 236, 4-{4-[(2-amino-6-pyridin-3-ylpyrimidin-4-yl)amino]phenoxy} pyridine-2-carbonitrile] | > 2000 |
| COc1ncc(-c2cc(Nc3ccc(Oc4ccnc(C#N)c4)cc3)nc(N)n2)c(OC)n1 [Example 237, 4-{4-[(2-amino-2′,4′-dimethoxy-4,5′-bipyrimidin-6-yl)amino]phenoxy} pyridine-2-carbonitrile] | > 2000 |
| N#Cc1cc(Oc2ccc(Nc3cc(-c4cccc(C(F)(F)F)c4)nc(N)n3)cc2)ccn1 [Example 244, 4-[4-({2-amino-6-[3-(trifluoromethyl)phenyl]pyrimidin-4-yl}amino)phenoxy]pyridine-2-carbonitrile] | > 2000 |

Same assay, conditions: Homo sapiens, HCT-116, 72 h compound exposure, less than or equal to 500 nM

| SMILES | IC50 [nM] |
| --- | --- |
| Cc1ccc(-c2cc(Nc3ccc(Oc4ccnc(C(F)(F)F)c4)cc3)nc(N)n2)cc1 [Example 211, 6-(4-methylphenyl)-N4*-(4-{[2-(trifluoromethyl)pyridin-4-yl]oxy}phenyl)pyrimidine-2,4-diamine] | ≤ 500 |
| Cc1cccc(-c2cc(Nc3ccc(Oc4ccnc(C(F)(F)F)c4)cc3)nc(N)n2)c1 [Example 212, 6-(3-methylphenyl)-N4*-(4-{[2-(trifluoromethyl)pyridin-4-yl]oxy}phenyl)pyrimidine-2,4-diamine] | ≤ 500 |
| Nc1nc(Nc2ccc(Oc3ccnc(C(F)(F)F)c3)cc2)cc(-c2cccnc2)n1 [Example 213, 6-pyridin-3-yl-N4*-(4-{[2-(trifluoromethyl)pyridin-4-yl]oxy}phenyl)pyrimidine-2,4-diamine] | ≤ 500 |
| Nc1nc(Nc2ccc(Oc3ccnc(C(F)(F)F)c3)cc2)cc(-c2ccsc2)n1 [Example 214, 6-(3-thienyl)-N4*-(4-{[2-(trifluoromethyl)pyridin-4-yl]oxy}phenyl)pyrimidine-2,4-diamine] | ≤ 500 |
| COc1ccc(OC)c(-c2cc(Nc3ccc(Oc4ccnc(C(F)(F)F)c4)cc3)nc(N)n2)c1 [Example 215, 6-(2,5-dimethoxyphenyl)-N4*-(4-{[2-(trifluoromethyl)pyridin-4-yl]oxy}phenyl)pyrimidine-2,4-diamine] | ≤ 500 |
| Nc1nc(Nc2ccc(Oc3ccnc(C(F)(F)F)c3)cc2)cc(-c2cc(F)cc(F)c2)n1 [Example 218, 6-(3,5-difluorophenyl)-N4*-(4-{[2-(trifluoromethyl)pyridin-4-yl]oxy}phenyl)pyrimidine-2,4-diamine] | ≤ 500 |
| N#Cc1cc(Oc2ccc(Nc3cc(-c4ccc[nH]4)nc(N)n3)cc2)ccn1 [Example 219, 4-(4-{[2-amino-6-(1H-pyrrol-2-yl)pyrimidin-4-yl]amino}phenoxy) pyridine-2-carbonitrile hydrochloride] | ≤ 500 |
| COc1ccc(-c2cc(Nc3ccc(Oc4ccnc(C#N)c4)cc3)nc(N)n2)cn1 [Example 223, 4-(4-{[2-amino-6-(6-methoxypyridin-3-yl)pyrimidin-4-yl]amino}phenoxy) pyridine-2-carbonitrile] | ≤ 500 |
| N#Cc1cc(Oc2ccc(Nc3cc(-c4ccc(O)cc4)nc(N)n3)cc2)ccn1 [Example 227, 4-(4-{[2-amino-6-(4-hydroxyphenyl)pyrimidin-4-yl]amino}phenoxy) pyridine-2-carbonitrile 4-(4-{[6-amino-2-(4-hydroxyphenyl)pyrimidin-4-yl]amino}phenoxy) pyridine-2-carbonitrile] | ≤ 500 |
| N#Cc1cc(Oc2ccc(Nc3cc(-c4ccoc4)nc(N)n3)cc2)ccn1 [Example 228, 4-(4-{[2-amino-6-(3-furyl)pyrimidin-4-yl]amino}phenoxy)pyridine-2-carbonitrile 4-(4-{[6-amino-2-(3-furyl)pyrimidin-4-yl]amino}phenoxy) pyridine-2-carbonitrile] | ≤ 500 |
| N#Cc1cc(Oc2ccc(Nc3cc(-c4ccc(N)cc4)nc(N)n3)cc2)ccn1 [Example 229, 4-(4-{[2-amino-6-(4-aminophenyl)pyrimidin-4-yl]amino}phenoxy) pyridine-2-carbonitrile 4-(4-{[6-amino-2-(4-aminophenyl)pyrimidin-4-yl]amino}phenoxy)pyridine-2-carbonitrile] | ≤ 500 |
| COc1ccc(OC)c(-c2cc(Nc3ccc(Oc4ccnc(C#N)c4)cc3)nc(N)n2)c1 [Example 233, 4-(4-{[2-amino-6-(2,5-dimethoxyphenyl)pyrimidin-4-yl]amino}phenoxy)pyridine-2-carbonitrile] | ≤ 500 |
| COc1cccc(-c2cc(Nc3ccc(Oc4ccnc(C#N)c4)cc3)nc(N)n2)c1 [Example 234, 4-(4-{[2-amino-6-(3-methoxyphenyl)pyrimidin-4-yl]amino}phenoxy) pyridine-2-carbonitrile] | ≤ 500 |
| N#Cc1cc(Oc2ccc(Nc3cc(-c4cccc(N)c4)nc(N)n3)cc2)ccn1 [Example 238, 4-(4-{[2-amino-6-(3-aminophenyl)pyrimidin-4-yl]amino}phenoxy) pyridine-2-carbonitrile] | ≤ 500 |
| N#Cc1cc(Oc2ccc(Nc3cc(-c4cccc(F)c4)nc(N)n3)cc2)ccn1 [Example 240, 4-(4-{[2-amino-6-(3-fluorophenyl)pyrimidin-4-yl]amino}phenoxy) pyridine-2-carbonitrile] | ≤ 500 |
| N#Cc1cc(Oc2ccc(Nc3cc(-c4ccccc4F)nc(N)n3)cc2)ccn1 [Example 241, 4-(4-{[2-amino-6-(2-fluorophenyl)pyrimidin-4-yl]amino}phenoxy) pyridine-2-carbonitrile] | ≤ 500 |
| Cc1ccccc1-c1cc(Nc2ccc(Oc3ccnc(C#N)c3)cc2)nc(N)n1 [Example 246, 4-(4-{[2-amino-6-(2-methylphenyl)pyrimidin-4-yl]amino}phenoxy) pyridine-2-carbonitrile] | ≤ 500 |
